# Reference: ChEMBL document CHEMBL3045916, “Synthesis, characterization, biological evaluation and in silico screening of oxadiazinanones” (Med Chem Res, 2013)
# Columns and labels:
# Candida albicans [1] = assay: Fungicidal activity against Candida albicans ATCC 90028 after 48 hr; assay type: functional; settings: ATCC 90028, 48 h
# Pseudomonas aeruginosa [2] = assay: Antibacterial activity against Pseudomonas aeruginosa ATCC 9029 assessed as growth inhibition after 24 hr by disk diffusion method; assay type: functional
# [3] = tested on: Radical scavenging activity; assay: Antioxidant activity assessed as DPPH radical scavenging activity at 6 ug/mL after 30 min by spectrophotometric analysis relative to control; assay type: functional
# Streptococcus pyogenes [4] = assay: Bactericidal activity against Streptococcus pyogenes clinical isolate after 18 to 24 hr; assay type: functional
# Staphylococcus aureus [5] = assay: Antibacterial activity against methicillin-resistant Staphylococcus aureus assessed as growth inhibition after 24 hr by macro-dilution method; assay type: functional
# [6] = tested on: Radical scavenging activity; assay: Antioxidant activity assessed as DPPH radical scavenging activity at 2 ug/mL after 30 min by spectrophotometric analysis relative to control; assay type: functional
# Staphylococcus aureus [7] = assay: Bactericidal activity against methicillin-resistant Staphylococcus aureus after 18 to 24 hr; assay type: functional
# Escherichia coli [8] = assay: Antibacterial activity against Escherichia coli ATCC 8739 assessed as growth inhibition after 24 hr by macro-dilution method; settings: ATCC 8739, 24 h
# Escherichia coli [9] = assay: Bactericidal activity against Escherichia coli ATCC 25922 after 18 to 24 hr; assay type: functional
# Klebsiella pneumoniae [10] = assay: Antibacterial activity against Klebsiella pneumoniae clinical isolate assessed as growth inhibition after 24 hr by macro-dilution method; assay type: functional
# [11] = tested on: Radical scavenging activity; assay: Antioxidant activity assessed as DPPH radical scavenging activity at 4 ug/mL after 30 min by spectrophotometric analysis relative to control; assay type: functional
# Talaromyces marneffei [12] = assay: Fungicidal activity against Talaromyces marneffei after 48 hr; assay type: functional
# [13] = tested on: Radical scavenging activity; assay: Antioxidant activity assessed as DPPH radical scavenging activity after 30 min by spectrophotometric analysis; assay type: functional
# Klebsiella pneumoniae [14] = assay: Antibacterial activity against Klebsiella pneumoniae clinical isolate assessed as growth inhibition after 24 hr by disk diffusion method; assay type: functional
# [15] = tested on: Radical scavenging activity; assay: Antioxidant activity assessed as DPPH radical scavenging activity at 8 ug/mL after 30 min by spectrophotometric analysis relative to control; assay type: functional
# Streptococcus pyogenes [16] = assay: Antibacterial activity against Streptococcus pyogenes clinical isolate assessed as growth inhibition after 24 hr by macro-dilution method; assay type: functional
# Aspergillus fumigatus [17] = assay: Fungicidal activity against Aspergillus fumigatus after 48 hr; assay type: functional
# Talaromyces marneffei [18] = assay: Antifungal activity against Talaromyces marneffei assessed as growth inhibition after 48 hr by agar disk diffusion method; assay type: functional
# Candida albicans [19] = assay: Antifungal activity against Candida albicans ATCC 90028 assessed as growth inhibition after 48 hr by macro-dilution method; assay type: functional; settings: ATCC 90028, 48 h
# Pseudomonas aeruginosa [20] = assay: Antibacterial activity against Pseudomonas aeruginosa ATCC 9029 assessed as growth inhibition after 24 hr by macro-dilution method; assay type: functional; settings: ATCC 9029, 24 h
# Aspergillus fumigatus [21] = assay: Antifungal activity against Aspergillus fumigatus assessed as growth inhibition after 48 hr by agar disk diffusion method; assay type: functional
# Streptococcus pyogenes [22] = assay: Antibacterial activity against Streptococcus pyogenes clinical isolate assessed as growth inhibition after 24 hr by disk diffusion method; assay type: functional
# [23] = tested on: Trichophyton mentagrophytes; assay: Antifungal activity against Trichophyton mentagrophytes assessed as growth inhibition after 48 hr by macro-dilution method; assay type: functional
# Pseudomonas aeruginosa [24] = assay: Bactericidal activity against Pseudomonas aeruginosa ATCC 9029 after 18 to 24 hr; assay type: functional
# Escherichia coli [25] = assay: Antibacterial activity against Escherichia coli ATCC 25922 assessed as growth inhibition after 24 hr by disk diffusion method; assay type: functional
# Candida albicans [26] = assay: Antifungal activity against Candida albicans ATCC 90028 assessed as growth inhibition after 48 hr by agar disk diffusion method; assay type: functional
# [27] = tested on: Trichophyton mentagrophytes; assay: Antifungal activity against Trichophyton mentagrophytes assessed as growth inhibition after 48 hr by agar disk diffusion method; assay type: functional
# Staphylococcus aureus [28] = assay: Antibacterial activity against methicillin-resistant Staphylococcus aureus assessed as growth inhibition after 24 hr by disk diffusion method; assay type: functional
# Aspergillus fumigatus [29] = assay: Antifungal activity against Aspergillus fumigatus assessed as growth inhibition after 48 hr by macro-dilution method; assay type: functional
# [30] = tested on: Trichophyton mentagrophytes; assay: Fungicidal activity against Trichophyton mentagrophytes after 48 hr; assay type: functional
# Klebsiella pneumoniae [31] = assay: Bactericidal activity against Klebsiella pneumoniae clinical isolate after 18 to 24 hr; assay type: functional
# [32] = tested on: Radical scavenging activity; assay: Antioxidant activity assessed as DPPH radical scavenging activity at 10 ug/mL after 30 min by spectrophotometric analysis relative to control; assay type: functional
# Talaromyces marneffei [33] = assay: Antifungal activity against Talaromyces marneffei assessed as growth inhibition after 48 hr by macro-dilution method; assay type: functional
compound,measurement,setting,value
CC1(c2cc(O)ccc2O)NNC(=O)CO1 (stereo not drawn),MFC,Candida albicans [1],100 µg/mL
same,diameter of the inhibition zone (DIZ),Pseudomonas aeruginosa [2],24.1 mm
same,Activity,[3],25.2%
same,MBC,Streptococcus pyogenes [4],100 µg/mL
same,MIC,Staphylococcus aureus [5],50 µg/mL
same,Activity,[6],6.61%
same,MBC,Staphylococcus aureus [7],100 µg/mL
same,MIC,Escherichia coli [8],50 µg/mL
same,MBC,Escherichia coli [9],100 µg/mL
same,MIC,Klebsiella pneumoniae [10],50 µg/mL
same,Activity,[11],18.7%
same,MFC,Talaromyces marneffei [12],100 µg/mL
same,IC50,[13],12.95 µg/mL
same,diameter of the inhibition zone (DIZ),Klebsiella pneumoniae [14],14.8 mm
same,Activity,[15],30.3%
same,MIC,Streptococcus pyogenes [16],50 µg/mL
same,MFC,Aspergillus fumigatus [17],100 µg/mL
same,diameter of the inhibition zone (DIZ),Talaromyces marneffei [18],11.7 mm
same,MIC,Candida albicans [19],50 µg/mL
same,MIC,Pseudomonas aeruginosa [20],50 µg/mL
same,diameter of the inhibition zone (DIZ),Aspergillus fumigatus [21],16.8 mm
same,diameter of the inhibition zone (DIZ),Streptococcus pyogenes [22],18.6 mm
same,MIC,[23],50 µg/mL
same,MBC,Pseudomonas aeruginosa [24],100 µg/mL
same,diameter of the inhibition zone (DIZ),Escherichia coli [25],17.2 mm
same,diameter of the inhibition zone (DIZ),Candida albicans [26],21.4 mm
same,diameter of the inhibition zone (DIZ),[27],14.8 mm
same,diameter of the inhibition zone (DIZ),Staphylococcus aureus [28],17.6 mm
same,MIC,Aspergillus fumigatus [29],50 µg/mL
same,MFC,[30],100 µg/mL
same,MBC,Klebsiella pneumoniae [31],100 µg/mL
same,Activity,[32],32.3%
same,MIC,Talaromyces marneffei [33],50 µg/mL
